According to PMC7567097, “A nanoluciferase SARS-CoV-2 for rapid neutralization testing and screening of anti-infective drugs for COVID-19” (Nature Communications, 2020):
Values joined by “and” are separate entries in the source; they are usually repeats but may differ in a detail not shown here. Equal entries are not always repeated. Where two headings read alike, the source gives them in different places.

What was measured:
in vitro = conditions: human; for viability: cell viability (% of DMSO control)
[1] = data from literature; ref [51]-[68]; cited from earlier work
SARS-CoV-2-Nluc [2] = assay: microbe, parasite or virus in culture; type: cell-based
[3] = Cytotoxicity assay (CCK-8, 72 h) in Vero E6 cells; type: cell-based, African green monkey; conditions: African green monkey, Vero E6 cells; for viability at 72 h: Vero, two replicates, read-out: cell viability (% of DMSO control)
Vero E6 cells = assay: Cytotoxicity assay (CCK-8, 72 h) in Vero E6 cells; type: cell-based, African green monkey; conditions: Vero, two replicates
SARS-CoV-2-Nluc [4] = assay: microbe, parasite or virus in culture; type: cell-based; conditions: Severe acute respiratory syndrome coronavirus 2, Vero C1008, 48 h
[5] = human exposures in the clinic, approved dosing schedules, ref [51]-[68], cited from earlier work; for Cmax: read-out: Exposure Cmax
[6] = Severe acute respiratory syndrome coronavirus 2, 48 h
[7] = Severe acute respiratory syndrome coronavirus 2, read-out: EC50 (µM) Replicate 1
[8] = Severe acute respiratory syndrome coronavirus 2, read-out: EC50 (µM) Replicate 2

O=C(NCc1c(F)cc(F)cc1F)c1cn2c(c(O)c1=O)C(=O)N1[C@H]3CC[C@H](C3)O[C@@H]1C2 [Bictegravir]
CC50 (in vitro; CC50): > 50 µM
Plasma protein binding [1]: >99%
EC50 (SARS-CoV-2-Nluc [2]; [6]): > 10 µM

CCN(CC)CCCC(C)Nc1ccnc2cc(Cl)ccc12 (stereo not drawn) [Chloroquine]
viability at 72 h ([3]; Concentration 0.00152416): 112%
viability at 72 h ([3]; Concentration 0.00457247): 113%
viability at 72 h ([3]; Concentration 0.0137174): 100%
viability at 72 h ([3]; Concentration 0.123457): 83.5%
viability at 72 h ([3]; Concentration 0.37037): 80.1%
viability at 72 h ([3]; Concentration 1.11111): 81.4%
viability at 72 h ([3]; Concentration 3.33333): 75.3%
viability at 72 h ([3]; Concentration 10): 76.5%
CC50 at 72 h ([3]; 3-day cytotoxicity): > 50 µM
cell viability (% of DMSO control) (Vero E6 cells; Concentration 0.00152416): 109.35%
cell viability (% of DMSO control) (Vero E6 cells; Concentration 0.00457247): 115.44%
cell viability (% of DMSO control) (Vero E6 cells; Concentration 0.0137174): 94.62%
cell viability (% of DMSO control) (Vero E6 cells; Concentration 0.0411523): 86.94% and 111.97%
cell viability (% of DMSO control) (Vero E6 cells; Concentration 0.123457): 83.36%
cell viability (% of DMSO control) (Vero E6 cells; Concentration 0.37037): 78.26%
cell viability (% of DMSO control) (Vero E6 cells; Concentration 1.11111): 94.9%
cell viability (% of DMSO control) (Vero E6 cells; Concentration 3.33333): 72.03%
cell viability (% of DMSO control) (Vero E6 cells; Concentration 10): 73.87%
CC50 (in vitro; CC50): > 50 µM
CC50 (in vitro; CC50 (µM) Replicate 1): > 50 µM
CC50 (in vitro; CC50 (µM) Replicate 2): > 50 µM
viability (in vitro; Concentration 0.00152416): 105%
viability (in vitro; Concentration 0.00457247): 106%
viability (in vitro; Concentration 0.0137174): 103%
viability (in vitro; Concentration 0.0411523): 104%
viability (in vitro; Concentration 0.123457): 105%
viability (in vitro; Concentration 0.37037): 104%
viability (in vitro; Concentration 1.11111): 104%
viability (in vitro; Concentration 3.33333): 104%
viability (in vitro; Concentration 10): 108%
cell viability (% of DMSO control) (A549-hACE2 cells; Concentration 0.00152416): 94.76%
cell viability (% of DMSO control) (A549-hACE2 cells; Concentration 0.00457247): 100.03%
cell viability (% of DMSO control) (A549-hACE2 cells; Concentration 0.0137174): 97.21%
cell viability (% of DMSO control) (A549-hACE2 cells; Concentration 0.0411523): 100.16%
cell viability (% of DMSO control) (A549-hACE2 cells; Concentration 0.123457): 98.53%
cell viability (% of DMSO control) (A549-hACE2 cells; Concentration 0.37037): 99.78%
cell viability (% of DMSO control) (A549-hACE2 cells; Concentration 1.11111): 100.72%
cell viability (% of DMSO control) (A549-hACE2 cells; Concentration 3.33333): 101.54%
cell viability (% of DMSO control) (A549-hACE2 cells; Concentration 10): 101.98%
EC50 (SARS-CoV-2-Nluc [4]): 3.52 µM
EC50 (SARS-CoV-2-Nluc [2]; [6]): 1.32 ± 0.36 µM
EC50 (SARS-CoV-2-Nluc [2]; [7]): 1.06 µM
EC50 (SARS-CoV-2-Nluc [2]; [8]): 1.57 µM

O=C1Nc2ccc(Cl)cc2[C@@](C#CC2CC2)(C(F)(F)F)O1 [Efavirenz]
CC50 (in vitro; CC50): 37.6 ± 10.7 µM
CC50 (in vitro; CC50 (µM) Replicate 1): 45.1 µM
CC50 (in vitro; CC50 (µM) Replicate 2): 30 µM
Plasma protein binding [1]: 99.5–99.8%
Selectivity index (SI) = CC50/EC50 (SARS-CoV-2-Nluc [2]): <3.9
EC50 (SARS-CoV-2-Nluc [2]; [6]): > 9.6 µM
EC50 (SARS-CoV-2-Nluc [2]; [7]): 9.6 µM
EC50 (SARS-CoV-2-Nluc [2]; [8]): > 10 µM
Exposure Cmin [5]: 5.6 µM

Nc1nc(=O)n([C@@H]2CS[C@H](CO)O2)cc1F [Emtricitabine (FTC), Emtricitabine]
CC50 (in vitro; CC50): > 50 µM
CC50 (in vitro; CC50 (µM) Replicate 1): > 50 µM
CC50 (in vitro; CC50 (µM) Replicate 2): > 50 µM
Plasma protein binding [1]: 4%
EC50 (SARS-CoV-2-Nluc [2]; [6]): > 10 µM
EC50 (SARS-CoV-2-Nluc [2]; [7]): > 10 µM
EC50 (SARS-CoV-2-Nluc [2]; [8]): > 10 µM
Cmax [5]: 7.9 µM

Cc1cccc(C)c1OCC(=O)N[C@@H](Cc1ccccc1)[C@@H](O)C[C@H](Cc1ccccc1)NC(=O)[C@H](C(C)C)N1CCCNC1=O [Lopinavir]
CC50 (in vitro; CC50): 31.5 ± 2.5 µM
CC50 (in vitro; CC50 (µM) Replicate 1): 29.8 µM
CC50 (in vitro; CC50 (µM) Replicate 2): 33.3 µM
Plasma protein binding [1]: 98–99%
EC50 (SARS-CoV-2-Nluc [2]; [6]): 9 ± 0.42 µM
EC50 (SARS-CoV-2-Nluc [2]; [7]): 9.3 µM
EC50 (SARS-CoV-2-Nluc [2]; [8]): 8.7 µM

Cc1c(O)cccc1C(=O)N[C@@H](CSc1ccccc1)[C@H](O)CN1C[C@H]2CCCC[C@H]2C[C@H]1C(=O)NC(C)(C)C [Nelfinavir]
CC50 (in vitro; CC50): 12 ± 1.3 µM
CC50 (in vitro; CC50 (µM) Replicate 1): 11.1 µM
CC50 (in vitro; CC50 (µM) Replicate 2): 13 µM
Plasma protein binding [1]: >98%
Selectivity index (SI) = CC50/EC50 (SARS-CoV-2-Nluc [2]): 15.7
EC50 (SARS-CoV-2-Nluc [2]; [6]): 0.77 ± 0.32 µM
EC50 (SARS-CoV-2-Nluc [2]; [7]): 0.542 µM
EC50 (SARS-CoV-2-Nluc [2]; [8]): 0.993 µM
EC50 (SARS-CoV-2-Nluc [2]; Severe acute respiratory syndrome coronavirus 2, read-out: projected protein adjusted potency (paEC50)): ~30 µM
Exposure Cmin [5]: 2.6 µM
Cmax [5]: 8.3 µM
